Test results as given in US10039753B2, “Imidazo[4,5-c]quinoline and imidazo[4,5-c][1,5]naphthyridine derivatives as LRRK2 inhibitors” (Pfizer Inc., priority 2015, dated 2018).
Structures can show the parent of a compound that is named as a salt.

Legend:
[1] = target: T1, GST-tagged truncated LRRK2 (Homo sapiens, UniProt Q5S007); test: LRRK2 Assay, Format 1 (Lantha Screen), WT; type: biochemical
T1 construct: GST-tagged truncated LRRK2 from Invitrogen (Cat # PV4874); GST; purchased Invitrogen PV4874
T1 sequence (Q5S007 970-2527 limits assumed): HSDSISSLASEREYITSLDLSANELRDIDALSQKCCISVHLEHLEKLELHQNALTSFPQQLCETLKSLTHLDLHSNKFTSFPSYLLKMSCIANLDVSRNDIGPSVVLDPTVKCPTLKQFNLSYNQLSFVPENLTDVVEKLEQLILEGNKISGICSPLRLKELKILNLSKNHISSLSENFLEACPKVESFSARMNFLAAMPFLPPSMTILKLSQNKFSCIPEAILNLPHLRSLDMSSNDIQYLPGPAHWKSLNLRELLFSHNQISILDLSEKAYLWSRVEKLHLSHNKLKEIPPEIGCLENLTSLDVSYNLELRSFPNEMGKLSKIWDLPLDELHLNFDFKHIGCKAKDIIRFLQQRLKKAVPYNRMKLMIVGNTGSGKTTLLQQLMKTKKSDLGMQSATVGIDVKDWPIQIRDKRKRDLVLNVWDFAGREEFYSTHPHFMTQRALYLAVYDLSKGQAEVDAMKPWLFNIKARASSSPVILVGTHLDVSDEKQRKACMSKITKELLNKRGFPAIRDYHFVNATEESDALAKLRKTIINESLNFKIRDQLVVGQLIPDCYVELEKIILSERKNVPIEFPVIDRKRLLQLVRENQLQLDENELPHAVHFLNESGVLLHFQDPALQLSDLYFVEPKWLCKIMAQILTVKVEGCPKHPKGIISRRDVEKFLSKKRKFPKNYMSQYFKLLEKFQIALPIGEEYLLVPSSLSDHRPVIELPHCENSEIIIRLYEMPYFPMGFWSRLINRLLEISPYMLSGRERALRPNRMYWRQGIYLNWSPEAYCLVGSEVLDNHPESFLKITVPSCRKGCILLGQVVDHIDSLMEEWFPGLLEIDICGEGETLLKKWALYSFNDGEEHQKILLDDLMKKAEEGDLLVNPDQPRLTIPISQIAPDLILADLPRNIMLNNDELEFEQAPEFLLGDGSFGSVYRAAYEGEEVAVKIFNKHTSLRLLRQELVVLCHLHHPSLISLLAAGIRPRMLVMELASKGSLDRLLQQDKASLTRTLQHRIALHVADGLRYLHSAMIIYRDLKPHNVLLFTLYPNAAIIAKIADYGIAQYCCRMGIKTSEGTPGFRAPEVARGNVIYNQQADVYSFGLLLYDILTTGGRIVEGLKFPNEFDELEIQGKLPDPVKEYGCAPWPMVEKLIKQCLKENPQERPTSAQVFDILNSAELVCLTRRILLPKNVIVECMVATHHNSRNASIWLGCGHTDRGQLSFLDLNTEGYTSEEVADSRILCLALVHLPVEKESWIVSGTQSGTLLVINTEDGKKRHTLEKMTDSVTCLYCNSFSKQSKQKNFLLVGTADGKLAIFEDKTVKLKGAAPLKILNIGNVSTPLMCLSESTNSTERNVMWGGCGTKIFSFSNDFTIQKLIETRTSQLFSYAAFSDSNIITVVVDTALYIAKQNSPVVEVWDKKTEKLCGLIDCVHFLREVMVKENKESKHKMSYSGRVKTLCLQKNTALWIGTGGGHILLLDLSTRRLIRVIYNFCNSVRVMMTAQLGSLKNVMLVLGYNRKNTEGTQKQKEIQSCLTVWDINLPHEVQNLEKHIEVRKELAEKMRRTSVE
Method in brief: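 Kinase activity measured by TR-FRET: GST-tagged truncated LRRK2 (4 μg/mL working solution) reacted with fluorescein-labeled LRRKtide (ERM-based peptide) across a compound dose response for 2 h at room temperature. Reaction stopped with EDTA-containing detection buffer (20 mM Tris pH 7.6) holding 2 nM terbium anti-phospho-ERM antibody.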

[2] = target: T1, GST-tagged truncated LRRK2; test: LRRK2 Assay, Format 2 (Lantha Screen), WT; type: biochemical
mutant G2019S LRRK2 [3] = target: T2, mutant G2019S LRRK2 (Homo sapiens, UniProt Q5S007, G2019S); test: LRRK2 Assay, Format 2 (Lantha Screen), G2019S mutant; type: biochemical; parameters: purchased Invitrogen PV4881
T2 sequence (Q5S007 970-2527 G2019S limits assumed): as the sequence (Q5S007 970-2527 limits assumed) above, with G1050S counted along it

mutant G2019S LRRK2 [4] = target: T2, mutant G2019S LRRK2; test: LRRK2 Assay, Format 1 (Lantha Screen), G2019S mutant
Experimental: LRRK2 kinase activity was measured using Lantha Screen technology from Invitrogen. GST-tagged truncated LRRK2 from Invitrogen (Cat # PV4874) was incubated with a fluorescein-labeled peptide substrate based upon ezrin/radixin/moesin (ERM), also known as LRRKtide (Invitrogen cat # PR8976A), in the presence of a dose response of compound. Upon completion, the assay was stopped and detected with a terbium labeled anti-phospho-ERM antibody (Invitrogen, cat # PR8975A). […] Aliquots (3.5 μL) of the 100% DMSO dose response were mixed with 46.5 μL water then 1 μL of this mixture was added to the 3 μL substrate mix in the 384-well plate. The kinase reaction was started with 3 μL of a working solution of LRRK2 enzyme at a concentration of 4 μg/mL. […] The reaction was allowed to progress at room temperature for two hours and then stopped with the addition of 7 μL of detection buffer (20 mM Tris pH 7.6, 0.01% NP-40, 0.02% NaN3, 6 mM EDTA with 2 nM terbium labeled anti-phospho-ERM).
All final concentrations of substrate ATP and enzyme were the same.

[5] = geometric mean of 2-4 determinations unless otherwise indicated
[6] = geometric mean of 2-4 determinations unless otherwise indicated (a: >=5; b: single determination)
[7] = geometric mean of 2-4 determinations unless otherwise indicated (a: >=5; b: single determination), read-out: LRRK2, Format 2 G2019S IC50
[8] = Format 1, wild-type LRRK2, geometric mean of 2-4 determinations unless footnoted (a: ≥5 determinations; b: single determination; c: determined on trifluoroacetate salt)

Row | SMILES | IC50 [1, 5] [nM] | IC50 [2, 6] [nM] | IC50 (mutant G2019S LRRK2 [3]; [7]) [nM] | IC50 (mutant G2019S LRRK2 [4]) [nM] | IC50 [1, 8] [nM] | other results
1 | Cc1nc(Cc2nc3cnc4ccc(Cl)cc4c3n2C2C[C@@H](C)[C@@H](F)C2)no1 (single isomer, unassigned) [Example 136] | 30.1 | 12 | 13 | 24.7 |  | 
2 | Cc1nc(Cc2nc3cnc4ccc(Cl)cc4c3n2C2C[C@@H](C)[C@@H](F)C2)no1 (mixture of isomers) [diastereomer of Example 136, 8-chloro-1-[rel-(3S,4R)-3-fluoro-4-methylcyclopentyl]-2-[(5-methyl-1,2,4-oxadiazol-3-yl)methyl]-1H-imidazo[4,5-c]quinoline, DIAST-2] |  |  |  | 105 |  | IC50 ([1]; 100 nM LRRKtide, 50 μM ATP, 1.7 μg/mL LRRK2 enzyme, two hours at room temperature): 156 nM; IC50 ([2]; 100 nM LRRKtide, 1000 mM ATP (so in the source), 30 minutes at room temperature): 63.2 nM; IC50 (mutant G2019S LRRK2 [3]; 100 nM LRRKtide, 1000 mM ATP (so in the source), 30 minutes at room temperature, read-out: LRRK2, Format 2 G2019S mutant IC50): 69.2 nM
3 | CC1(C)CC(n2c(Cc3cscn3)nc3cnc4ccc(F)cc4c32)CCO1 (centres unmarked) [Example 80, 1-(2,2-dimethyltetrahydro-2H-pyran-4-yl)-8-fluoro-2-(1,3-thiazol-4-ylmethyl)-1H-imidazo[4,5-c]quinoline, trifluoroacetate salt] |  |  |  | 39.5 | 52.1 | 
4 | C[C@@H]1C[C@@H](n2c(Cc3ccon3)nc3cnc4ccc(C#N)cc4c32)CCO1 (racemic) [Example 23, 1-(trans-2-methyltetrahydro-2H-pyran-4-yl)-2-(1,2-oxazol-3-ylmethyl)-1H-imidazo[4,5-c]quinoline-8-carbonitrile] |  |  |  | 153 | 199 | 
5 | F[C@H]1CC[C@@H](n2c(Cc3ccon3)nc3cnc4ccccc4c32)C1 [Example 16, 1-[(1R,3S)-3-fluorocyclopentyl]-2-(1,2-oxazol-3-ylmethyl)-1H-imidazo[4,5-c]quinoline] |  |  |  | 184 | 158 | 
6 | COc1ccc(Cc2nc3cnc4ccccc4c3n2C2CCOCC2)nc1 [Example 37, 2-[(5-methoxypyridin-2-yl)methyl]-1-(tetrahydro-2H-pyran-4-yl)-1H-imidazo[4,5-c]quinoline] |  |  |  | 143 | 133 | 
7 | Cc1nn2cc(Cc3nc4cnc5ccc(F)cc5c4n3C3CCOC(C)(C)C3)nc2s1 (centres unmarked) [Example 83, 1-(2,2-dimethyltetrahydro-2H-pyran-4-yl)-8-fluoro-2-[(2-methylimidazo[2,1-b][1,3,4]thiadiazol-6-yl)methyl]-1H-imidazo[4,5-c]quinoline, trifluoroacetate salt] |  |  |  | 21.2 | 25.4 | 
8 | C[C@@H]1C[C@H](n2c(Cc3cscn3)nc3cnc4ccc(Cl)cc4c32)CCO1 [Example 10, 8-Chloro-1-[(2R,4R)-2-methyltetrahydro-2H-pyran-4-yl]-2-(1,3-thiazol-4-ylmethyl)(4-^2H)-1H-imidazo[4,5-c]quinoline] |  |  |  |  | 5 | IC50 (mutant G2019S LRRK2 [4]; read-out: LRRK2, Format 1 G2019S IC50, Format 1, G2019S mutant LRRK2, geometric mean of 2-4 determinations unless footnoted (a: ≥5 determinations; b: single determination; c: determined on trifluoroacetate salt)): 3 nM
9 | CC(C)c1cc(Cc2nc3cnc4ccc(Br)cc4c3n2[C@@H]2CCO[C@H](C)C2)no1 [Example 171, 8-bromo-1-[(2R,4R)-2-methyltetrahydro-2H-pyran-4-yl]-2-{[5-(propan-2-yl)-1,2-oxazol-3-yl]methyl}-1H-imidazo[4,5-c]quinoline] | 17.1 | 5.2 | 5.35 | 15.9 |  | 

More lines, in order of falling IC50 (mutant G2019S LRRK2 [4]), values ahead:

Row | IC50 [1, 5] [nM] | IC50 [2, 6] [nM] | IC50 (mutant G2019S LRRK2 [3]; [7]) [nM] | IC50 (mutant G2019S LRRK2 [4]) [nM] | IC50 [1, 8] [nM] | SMILES | other results
10 | 14.4 | 6 | 6.34 | 9.17 |  | C[C@@H]1C[C@H](n2c(Cc3cc(C4CC4)on3)nc3cnc4ccc(Br)cc4c32)CCO1 [Example 172, 8-bromo-2-[(5-cyclopropyl-1,2-oxazol-3-yl)methyl]-1-[(2R,4R)-2-methyltetrahydro-2H-pyran-4-yl]-1H-imidazo[4,5-c]quinoline] | 
11 |  |  |  | 7.5 | 18 | COc1ccc2ncc3nc(Cn4cc(C)nn4)n([C@@H]4CCO[C@H](C)C4)c3c2c1 [Example 88, 8-methoxy-1-[(2R,4R)-2-methyltetrahydro-2H-pyran-4-yl]-2-[(4-methyl-1H-1,2,3-triazol-1-yl)methyl]-1H-imidazo[4,5-c]quinoline] | 
12 | 4.78 | 6.98 | 7.33 | 4.8 |  | C[C@@H]1C[C@H](n2c(Cc3cc(C4CC4)on3)nc3cnc4ccc(C#N)cc4c32)CCO1 [Example 145, 2-[(5-cyclopropyl-1,2-oxazol-3-yl)methyl]-1-[(2R,4R)-2-methyltetrahydro-2H-pyran-4-yl]-1H-imidazo[4,5-c]quinoline-8-carbonitrile] | 
13 |  |  |  | 4 | 6.1 | C[C@@H]1C[C@H](n2c(Cc3cscn3)nc3cnc4ccc(C#N)cc4c32)CCO1 [Example 57, 1-[(2R,4R)-2-methyltetrahydro-2H-pyran-4-yl]-2-(1,3-thiazol-4-ylmethyl)-1H-imidazo[4,5-c]quinoline-8-carbonitrile] | 
14 | 3.48 | 7.68 | 7.78 | 3.78 |  | Cc1cc(Cc2nc3cnc4ccc(Cl)cc4c3n2[C@@H]2CCO[C@H](CC#N)C2)no1 (single isomer, unassigned; ent-1) [Example 134, [cis-4-{8-chloro-2-[(5-methyl-1,2-oxazol-3-yl)methyl]-1H-imidazo[4,5-c]quinolin-1-yl}tetrahydro-2H-pyran-2-yl]acetonitrile, ENT-1] | 
15 | 3.78 | 16 | 15.5 | 3.65 |  | Cc1nc(Cc2nc3cnc4ccc(Cl)cc4c3n2[C@@H]2CCO[C@H](CC#N)C2)no1 (single isomer, unassigned; ent-1) [Example 135, [cis-4-{8-chloro-2-[(5-methyl-1,2,4-oxadiazol-3-yl)methyl]-1H-imidazo[4,5-c]quinolin-1-yl}tetrahydro-2H-pyran-2-yl]acetonitrile, ENT-1] | 
16 | 5.14 | 6.7 | 6.72 | 3.62 |  | Cc1cn(Cc2nc3cnc4ccc(Br)cc4c3n2[C@@H]2CCO[C@H](C)C2)nn1 [Example 173, 8-bromo-1-[(2R,4R)-2-methyltetrahydro-2H-pyran-4-yl]-2-[(4-methyl-1H-1,2,3-triazol-1-yl)methyl]-1H-imidazo[4,5-c]quinoline] | 
17 |  |  |  | 2.7 | 4.1 | C[C@@H]1C[C@H](n2c(Cc3ccon3)nc3cnc4ccc(Cl)cc4c32)CCO1 [Example 52, 8-chloro-1-[(2R,4R)-2-methyltetrahydro-2H-pyran-4-yl]-2-(1,2-oxazol-3-ylmethyl)-1H-imidazo[4,5-c]quinoline] | 
